Measured values taken from patent US7067619B2, “Integrin-binding peptides” (La Jolla Cancer Research Foundation, priority 1993, dated 2006).
Bridge positions count the residues as written; N and C are the ends. Ends that are not written are not given here. Peptide text beside a SMILES is read from it.

What was measured:
αvβ5 integrin = αvβ5 integrin (Homo sapiens, UniProt P06756+P18084); experiment: Inhibition of αvβ5-mediated cell attachment to vitronectin; format: cell-based; design: αvβ5-mediated attachment of HT-29 cells to vitronectin; endogenous in cells; host or cells: HT-29 cells; UCLA-P3 cells
Sequence of αvβ5 integrin (P06756 31-889 limits assumed): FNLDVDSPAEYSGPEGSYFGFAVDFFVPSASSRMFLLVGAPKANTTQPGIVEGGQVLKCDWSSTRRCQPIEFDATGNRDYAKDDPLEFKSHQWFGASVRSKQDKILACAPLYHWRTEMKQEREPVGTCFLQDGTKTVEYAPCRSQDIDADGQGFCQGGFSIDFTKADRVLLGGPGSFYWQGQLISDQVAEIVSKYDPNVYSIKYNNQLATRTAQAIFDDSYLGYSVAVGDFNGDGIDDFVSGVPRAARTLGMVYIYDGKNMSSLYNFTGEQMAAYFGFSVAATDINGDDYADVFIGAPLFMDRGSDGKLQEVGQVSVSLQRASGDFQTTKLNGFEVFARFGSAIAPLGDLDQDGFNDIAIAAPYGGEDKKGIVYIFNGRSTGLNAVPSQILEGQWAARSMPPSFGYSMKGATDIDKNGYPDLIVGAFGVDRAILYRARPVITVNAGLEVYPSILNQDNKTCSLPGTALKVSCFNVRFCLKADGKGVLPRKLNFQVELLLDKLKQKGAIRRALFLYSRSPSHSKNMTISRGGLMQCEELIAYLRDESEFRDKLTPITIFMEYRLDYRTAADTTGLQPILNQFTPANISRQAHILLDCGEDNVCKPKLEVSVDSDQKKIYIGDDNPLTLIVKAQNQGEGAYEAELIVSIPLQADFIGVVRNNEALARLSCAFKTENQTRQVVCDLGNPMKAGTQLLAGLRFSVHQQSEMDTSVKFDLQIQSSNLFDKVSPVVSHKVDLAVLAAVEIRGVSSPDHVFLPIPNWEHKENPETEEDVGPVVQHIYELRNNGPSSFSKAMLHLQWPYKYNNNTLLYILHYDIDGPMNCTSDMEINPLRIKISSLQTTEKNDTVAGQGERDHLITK
Sequence of αvβ5 integrin (P06756 891-1048 partner limits assumed): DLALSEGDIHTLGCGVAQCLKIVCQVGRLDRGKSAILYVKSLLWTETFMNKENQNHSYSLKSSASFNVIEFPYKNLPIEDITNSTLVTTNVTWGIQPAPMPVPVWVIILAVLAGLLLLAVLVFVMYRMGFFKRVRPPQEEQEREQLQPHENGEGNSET
Sequence of αvβ5 integrin (P18084 24-799): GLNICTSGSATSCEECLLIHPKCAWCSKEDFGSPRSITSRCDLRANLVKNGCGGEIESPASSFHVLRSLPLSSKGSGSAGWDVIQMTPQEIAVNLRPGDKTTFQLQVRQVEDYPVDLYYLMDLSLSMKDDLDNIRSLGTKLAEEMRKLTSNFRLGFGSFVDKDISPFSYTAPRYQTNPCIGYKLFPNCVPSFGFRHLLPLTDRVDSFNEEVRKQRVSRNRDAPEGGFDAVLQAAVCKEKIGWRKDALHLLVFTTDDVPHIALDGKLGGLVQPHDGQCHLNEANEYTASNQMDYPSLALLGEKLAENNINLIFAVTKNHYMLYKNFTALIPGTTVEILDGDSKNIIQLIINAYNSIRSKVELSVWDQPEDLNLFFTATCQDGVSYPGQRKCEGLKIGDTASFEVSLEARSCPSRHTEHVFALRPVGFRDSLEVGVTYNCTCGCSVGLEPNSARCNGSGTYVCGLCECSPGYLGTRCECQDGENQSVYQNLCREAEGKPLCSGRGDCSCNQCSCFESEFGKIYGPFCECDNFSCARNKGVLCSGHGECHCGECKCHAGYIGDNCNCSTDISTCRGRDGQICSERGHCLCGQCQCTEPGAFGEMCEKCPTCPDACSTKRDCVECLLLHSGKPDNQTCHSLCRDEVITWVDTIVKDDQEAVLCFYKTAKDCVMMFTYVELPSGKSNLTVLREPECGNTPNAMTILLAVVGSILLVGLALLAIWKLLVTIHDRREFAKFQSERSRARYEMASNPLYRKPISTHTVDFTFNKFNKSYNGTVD
Description: FIG. 12—αvβ5-mediated attachment of HT-29 cells to vitronectin.
(§1) Cell lines expressing different integrins were used to examine peptide inhibition of integrin function. A human melanoma cell line, C8161, a fibroblast cell line, WI-38, and an osteosarcoma cell line, MG-63 (described by Seftor et al., Canc. Res., 53:3411–3415 (1993); Vogel et al., J. Biol. Chem., 265:5934–5937 (1990); and Pytela et al. (1985), supra, respectively, each of which is incorporated herein by reference) attach to fibronectin through α5β1 integrin, as does B2/α27, a CHO cell line transfected with human α5. B2/C1, the control parental CHO line (Bauer et al., J. Cell. Biol. 116:477–487 (1992), which is incorporated herein by reference), attaches via […]. CHO cells C11 and NIH 3T3 cells express the endogenous Chinese hamster and mouse α5β1 integrins, respectively. The human melanoma cells, A375-M, attach to fibronectin through both α5β1 and α4β1 integrins (Mould et al., J. Biol. Chem. 265:4020–4024 (1990), which is incorporated herein by reference). CHO cell line B2/v7 express the αvβ1 integrin (Zhang et al., J. Cell. Biol. 122:235–242 (1993), which is incorporated herein by reference). The vitronectin-binding integrins αvβ1 and αvβ3 were assayed using the cell line HT-29 and IMR-90, respectively (Koivunen et al., J. Biol. Chem. 268: 20205–20210 (1993)).
(§2) Cell lines expressing fibronectin-binding integrins were used to determine peptide activities against these integrins in the cell attachment assay described by Ruoslahti et al., Meth. Enzymol., 144:803–831 (1982), which is incorporated herein by reference. Human plasma fibronectin was iodinated as described by Morla and Ruoslahti, J. Cell Biol., 118:421–429 (1992), which is incorporated herein by reference. Vitronectin was obtained from Telios Pharmaceuticals (San Diego, Calif.). […] Peptide was coated on plastic by incubating at 37° C. for 2 hours in phosphate buffered saline containing 0.25% glutaraldehyde to crosslink the peptide. Free binding sites on the plastic were blocked using BSA. Approximately 1×10^5 cells per well were allowed to attach for 1 hour in the presence or absence of competing peptides. Bound cells were quantitated by staining with 0.1% amido black.
(§3) Inhibition of cell attachment mediated by either fibronectin- or vitronectin-binding integrins was performed to determine peptide specificity in a biologically relevant system. The assays and cell lines were performed as described above. FIGS. 5 and 6 show the results of cell attachment mediated by the fibronectin binding integrins α5β1 and αvβ1.

αvβ3 integrin [1] = target: T1, αvβ3 integrin (Homo sapiens, UniProt P05106+P06756); experiment: Inhibition of peptide-displaying phage binding to αvβ3 integrin by synthetic peptides; design: The αvβ3, αvβ5 and α5β1 integrins were isolated from human placental extracts; from tissue; host or cells: human placenta
T1 sequence (P06756 31-889 limits assumed): as the sequence (P06756 31-889 limits assumed) above
T1 sequence (P06756 891-1048 partner limits assumed): as the sequence (P06756 891-1048 partner limits assumed) above
T1 sequence (P05106 27-788): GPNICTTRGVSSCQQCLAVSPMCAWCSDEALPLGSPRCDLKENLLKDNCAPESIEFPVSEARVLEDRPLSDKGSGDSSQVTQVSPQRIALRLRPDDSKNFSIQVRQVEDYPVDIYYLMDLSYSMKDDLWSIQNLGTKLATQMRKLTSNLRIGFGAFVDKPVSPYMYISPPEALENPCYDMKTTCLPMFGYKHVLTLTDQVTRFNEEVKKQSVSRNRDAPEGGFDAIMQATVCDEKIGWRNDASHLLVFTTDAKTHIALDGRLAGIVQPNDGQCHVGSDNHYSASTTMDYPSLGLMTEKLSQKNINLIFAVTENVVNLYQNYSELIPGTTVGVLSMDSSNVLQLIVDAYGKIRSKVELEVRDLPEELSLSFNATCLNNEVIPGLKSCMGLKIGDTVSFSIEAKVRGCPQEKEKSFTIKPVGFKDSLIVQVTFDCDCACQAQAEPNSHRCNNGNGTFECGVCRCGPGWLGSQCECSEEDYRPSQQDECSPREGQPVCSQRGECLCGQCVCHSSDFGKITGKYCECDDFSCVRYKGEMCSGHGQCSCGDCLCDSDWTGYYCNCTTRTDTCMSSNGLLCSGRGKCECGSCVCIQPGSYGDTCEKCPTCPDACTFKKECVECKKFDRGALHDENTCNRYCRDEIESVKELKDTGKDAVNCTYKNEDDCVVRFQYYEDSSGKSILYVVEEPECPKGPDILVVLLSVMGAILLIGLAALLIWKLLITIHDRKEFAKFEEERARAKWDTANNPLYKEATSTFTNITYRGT
Description: In addition, most of the phage-binding activity in the αvβ3 preparation was captured into microliter wells coated with antibodies against the αv or β3 subunits as described previously (Koivunen et al., J. Biol. Chem., 268:20205–10 (1993). The αIIbβ3 integrin was isolated from outdated platelets (Pytela et al., Science, 231:1559–1562 (1986)).
Binding of individual cloned phage to integrins was studied in microliter wells as described in Koivunen et al., J. Cell. Biol., 124:373–380 (1994). Phage binding to α5β1 and αvβ3 were assayed in TBS buffer containing 1% BSA and 1 mM MnCl2 and binding to αvβ5 in the presence of 1 mM CaCl2. Phage that were bound were determined by their ability to infect F-pilus positive K91kan bacteria. Bacteria were grown overnight in microliter wells in the presence of tetracycline and the absorbance indicative of bacterial growth was read at 600 nm with an ELISA plate reader.
The ability of […] [SEQ ID NO:12] and CRGDC [SEQ ID NO:37] containing peptides to inhibit binding of CRGDCL-displaying [SEQ ID NO:7] phage to the microwells coated with αvβ3 integrin also was examined. CRGDCL-displaying [SEQ ID NO:7] phage were added to a well and either cyclic […] [SEQ ID NO:6] or cyclic […] [SEQ ID NO:5] was added to compete for binding. Binding was quantitated as described above.

α5β1 integrin = experiment: Inhibition of α5β1-mediated cell attachment to fibronectin; format: cell-based, human
Description: as §1, §2, §3

αvβ3 integrin [2] = target: T1, αvβ3 integrin; experiment: Inhibition of αvβ3-mediated attachment of IMR-90 cells to vitronectin; format: cell-based; design: endogenous in cells; host or cells: IMR-90 cells
Procedure: FIG. 13—[…] attachment of IMR-90 cells to vitronectin. The cells that bound were determined as described herein.
as §1, with “CHO cell line B2/v7 express the αvβ1 integrin (Zhang et al., J. Cell. Biol. 122:235–242 (1993), which is incorporated herein by reference). The vitronectin-binding integrins αvβ1 and αvβ3 were assayed using the cell line HT-29 and IMR-90, respectively (Koivunen et al., J. Biol. Chem. 268: 20205–20210 (1993)).” left out
Cell lines expressing fibronectin-binding integrins were used to determine peptide activities against these integrins in the cell attachment assay described by Ruoslahti et al., Meth. […] Bound cells were quantitated by staining with 0.1% amido black.

Compound: GACRRETAWACGA
- activity against cell attachment to vitronectin (αvβ5 integrin; all concentrations tested, FIG. 7 (sentence prints αvβ1)): essentially devoid of activity
- inhibition of binding of CRGDCL-displaying phage to integrin-coated wells (αvβ3 integrin [1]; CRGDCL-displaying phage, αvβ3-coated wells, FIG. 3 (result sentence prints α5β1)): ineffective
- inhibition of cell attachment to a 110 kDa fragment of fibronectin (α5β1 integrin; 110 kDa fragment containing the cell attachment domain): inhibited
- inhibition of attachment of A375-M cells to fibronectin (α5β1 integrin; A375-M cells (also express α4β1)): only partially inhibited
- efficiency at inhibiting binding to α5β1 compared with cyclic CRGDCL peptide (α5β1 integrin; B2/α27 cells, fibronectin, FIG. 5): more efficient
- binding activity following reduction of the disulfide bond and alkylation of the cysteine residues (α5β1 integrin; linearized vs cyclic peptide): greatly decreased
- reduction of activity after reduction and alkylation of the disulfide bond (α5β1 integrin; linearized vs cyclic peptide): about 50 ×

Compound: C[C@H](N)C(=O)N[C@H]1CSSC[C@@H](C(=O)NCC(=O)O)NC(=O)[C@H](Cc2ccccc2)NC(=O)[C@@H]2CSSC[C@H](NC(=O)[C@H](CC(=O)O)NC1=O)C(=O)N[C@@H](CCCNC(=N)N)C(=O)NCC(=O)N[C@@H](CC(=O)O)C(=O)N2 (H-ACDCRGDCFCG-OH; disulfide 2-10, 4-8)
- affinity relative to *CRGDC* in HT-29 attachment to vitronectin (αvβ5 integrin; HT-29 cells, higher than *CRGDC*): 40 fold
- affinity relative to A*CRGDGWC*G in HT-29 attachment to vitronectin (αvβ5 integrin; HT-29 cells, higher than A*CRGDGWC*G): 40 fold
- enhancement in activity relative to *CRGDC* in UCLA-P3 cells (αvβ5 integrin; UCLA-P3 cells): 20 fold
- effectiveness relative to *CRGDC* in IMR-90 attachment to vitronectin (αvβ3 integrin [2]; more effective than *CRGDC*): 20 fold
- inhibition of phage binding to αvβ3 relative to *CRGDC* (αvβ3 integrin [1]; better than *CRGDC*): 5 fold
- activity toward α5β1 compared to *CRGDC* (α5β1 integrin; cell attachment to fibronectin): significantly decreased activity
- activity toward α5β1 compared to linear GRGDSP (α5β1 integrin; cell attachment to fibronectin): only slightly better

Compound: A*CPSRLDSPC*G (ACPSRLDSPCG; disulfide 2-10 (inferred))
- concentration at which inhibitory activity was shown (αvβ3 integrin [2]; vitronectin): higher than 1 mM
- affinity for αvβ3 (αvβ3 integrin [1]; phage binding experiments): low
- selectivity towards the αvβ3 integrin (αvβ3 integrin [1]; phage binding experiments): partial selectivity
